“Also recorded” adds a separate entry of the source. Like-named read-outs stand apart in the source and are kept apart here.
Columns and labels:
A/M2/HK156/94 = A/M2/HK156/94 (Influenza A virus, UniProt O70632); assay: biochemical; format: biochemical; details: for H+ transport across VLP membranes (fluorescence): pH 4.5
A/M2 Udorn72 = A/M2 Udorn72 (Influenza A virus, UniProt P0DOF5); format: biochemical; details: pH 4.5
[1] = biological target: M2 viral ion channel, Influenza A (Udorn/72) virions (Influenza A virus, UniProt P0DOF5); format: biochemical
M2 = details: cited from earlier work
5HT3a cation channel = 5HT3a cation channel (Homo sapiens, UniProt P46098); format: biochemical
[2] = format: biochemical; details: for response to 30 mM K2SO4 after prior disruption of the lipoparticle structure: gramicidin (1 uM) or melittin (5 uM)
Shaker(Δ6-46)T449V = biological target: T1, Shaker(Δ6-46)T449V (Drosophila melanogaster, UniProt P08510, DEL6-46/T449V); format: biochemical; details: for Shaker activity: iberiotoxin (10 uM), margatoxin (10 uM); for lipoparticle Shaker activity: pre-treated with 10 nM toxin, duplicate experiments
T1 construct: made in house; host or cells: 293 / HEK-293 cells co-transfected with MLV Gag

Shaker T449K mutant = biological target: T2, Shaker T449K mutant (Drosophila melanogaster, UniProt P08510, T449K); format: biochemical; details: 10 nM CHTX pre-treatment
T2 construct: made in house

Shaker = Shaker (Drosophila melanogaster, UniProt P08510); details: cited from earlier work
human KCNQ2/3 channel = biological target: T3, human KCNQ2/3 channel (Homo sapiens, UniProt O43525+O43526); format: biochemical
T3 construct: made in house
T3 sequence (O43526 whole entry): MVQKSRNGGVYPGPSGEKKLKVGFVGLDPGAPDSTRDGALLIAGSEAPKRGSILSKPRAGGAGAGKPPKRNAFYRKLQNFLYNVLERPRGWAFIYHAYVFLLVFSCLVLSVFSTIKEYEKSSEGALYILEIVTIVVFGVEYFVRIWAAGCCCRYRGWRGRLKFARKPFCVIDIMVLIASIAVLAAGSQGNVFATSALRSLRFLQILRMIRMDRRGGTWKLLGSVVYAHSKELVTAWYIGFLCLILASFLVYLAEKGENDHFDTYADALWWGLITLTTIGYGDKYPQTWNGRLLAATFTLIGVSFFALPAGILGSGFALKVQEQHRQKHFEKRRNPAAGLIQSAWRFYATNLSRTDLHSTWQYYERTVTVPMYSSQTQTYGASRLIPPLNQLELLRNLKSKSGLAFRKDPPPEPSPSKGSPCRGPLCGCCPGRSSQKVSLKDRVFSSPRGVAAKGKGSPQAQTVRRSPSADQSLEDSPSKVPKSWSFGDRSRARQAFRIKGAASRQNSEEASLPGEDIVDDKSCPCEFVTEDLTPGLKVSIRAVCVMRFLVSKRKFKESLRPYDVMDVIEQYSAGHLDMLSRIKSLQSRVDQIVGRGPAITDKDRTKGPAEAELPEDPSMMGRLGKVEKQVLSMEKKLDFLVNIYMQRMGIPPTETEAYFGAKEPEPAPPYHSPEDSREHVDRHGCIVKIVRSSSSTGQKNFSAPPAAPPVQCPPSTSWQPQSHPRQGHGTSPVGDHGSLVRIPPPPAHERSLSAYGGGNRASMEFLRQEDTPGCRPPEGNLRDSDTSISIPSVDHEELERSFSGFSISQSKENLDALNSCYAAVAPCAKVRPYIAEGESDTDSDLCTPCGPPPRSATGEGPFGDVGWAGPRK
T3 sequence (O43525 whole entry): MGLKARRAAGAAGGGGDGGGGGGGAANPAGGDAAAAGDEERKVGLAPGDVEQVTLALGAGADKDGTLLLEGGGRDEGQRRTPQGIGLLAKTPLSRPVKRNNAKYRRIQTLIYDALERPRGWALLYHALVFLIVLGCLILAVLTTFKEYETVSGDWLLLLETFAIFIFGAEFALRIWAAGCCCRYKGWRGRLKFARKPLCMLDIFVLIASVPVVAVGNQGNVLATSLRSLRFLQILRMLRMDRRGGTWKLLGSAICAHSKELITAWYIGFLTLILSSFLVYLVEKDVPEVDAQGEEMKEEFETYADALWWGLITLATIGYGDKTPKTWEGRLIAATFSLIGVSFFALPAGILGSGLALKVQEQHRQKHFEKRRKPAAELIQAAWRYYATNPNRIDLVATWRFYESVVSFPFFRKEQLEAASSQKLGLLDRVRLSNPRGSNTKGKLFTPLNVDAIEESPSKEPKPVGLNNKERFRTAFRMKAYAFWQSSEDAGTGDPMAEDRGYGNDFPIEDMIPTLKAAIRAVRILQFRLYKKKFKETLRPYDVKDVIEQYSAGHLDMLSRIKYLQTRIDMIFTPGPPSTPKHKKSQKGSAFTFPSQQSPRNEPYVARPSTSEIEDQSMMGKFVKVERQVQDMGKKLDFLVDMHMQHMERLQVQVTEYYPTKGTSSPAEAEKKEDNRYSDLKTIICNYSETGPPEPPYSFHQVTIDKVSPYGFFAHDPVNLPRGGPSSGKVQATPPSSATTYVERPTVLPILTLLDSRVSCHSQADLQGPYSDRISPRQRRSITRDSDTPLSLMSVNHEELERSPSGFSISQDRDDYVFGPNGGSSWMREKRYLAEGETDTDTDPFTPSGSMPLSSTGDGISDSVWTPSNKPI

A/M2/HK156/94, sequence (O70632 whole entry, looked up): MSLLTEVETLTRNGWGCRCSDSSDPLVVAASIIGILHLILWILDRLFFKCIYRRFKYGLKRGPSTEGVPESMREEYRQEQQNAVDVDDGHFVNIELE
T1 sequence (P08510 with tags, fused parts or gaps DEL6-46/T449V): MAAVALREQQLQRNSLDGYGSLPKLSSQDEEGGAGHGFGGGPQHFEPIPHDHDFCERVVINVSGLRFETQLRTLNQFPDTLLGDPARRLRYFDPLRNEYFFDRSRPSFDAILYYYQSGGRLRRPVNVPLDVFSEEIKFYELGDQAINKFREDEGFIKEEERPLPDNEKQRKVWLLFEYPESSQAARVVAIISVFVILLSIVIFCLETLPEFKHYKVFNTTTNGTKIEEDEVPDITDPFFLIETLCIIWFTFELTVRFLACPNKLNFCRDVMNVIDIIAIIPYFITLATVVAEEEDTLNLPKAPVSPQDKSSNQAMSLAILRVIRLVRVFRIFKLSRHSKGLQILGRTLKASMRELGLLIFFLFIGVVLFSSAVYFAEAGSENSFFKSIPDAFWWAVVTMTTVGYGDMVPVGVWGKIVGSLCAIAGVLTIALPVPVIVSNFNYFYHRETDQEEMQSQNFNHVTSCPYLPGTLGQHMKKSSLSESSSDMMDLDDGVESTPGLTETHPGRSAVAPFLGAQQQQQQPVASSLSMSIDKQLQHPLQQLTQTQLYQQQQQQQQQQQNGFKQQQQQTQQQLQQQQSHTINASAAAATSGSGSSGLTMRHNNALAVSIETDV
5HT3a cation channel, sequence (P46098 24-478): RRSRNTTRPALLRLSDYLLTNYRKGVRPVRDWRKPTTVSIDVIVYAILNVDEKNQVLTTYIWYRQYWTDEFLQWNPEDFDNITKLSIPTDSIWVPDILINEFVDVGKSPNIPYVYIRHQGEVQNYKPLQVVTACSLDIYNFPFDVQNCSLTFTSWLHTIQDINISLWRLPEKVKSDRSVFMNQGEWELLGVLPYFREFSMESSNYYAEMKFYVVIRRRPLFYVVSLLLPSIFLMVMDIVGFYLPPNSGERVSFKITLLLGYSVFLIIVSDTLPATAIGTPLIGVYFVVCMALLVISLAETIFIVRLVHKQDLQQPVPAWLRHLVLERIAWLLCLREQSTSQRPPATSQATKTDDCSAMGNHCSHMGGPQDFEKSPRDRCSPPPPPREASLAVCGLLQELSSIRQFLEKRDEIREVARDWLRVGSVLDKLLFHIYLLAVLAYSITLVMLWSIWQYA
A/M2 Udorn72, sequence (P0DOF5 whole entry, looked up): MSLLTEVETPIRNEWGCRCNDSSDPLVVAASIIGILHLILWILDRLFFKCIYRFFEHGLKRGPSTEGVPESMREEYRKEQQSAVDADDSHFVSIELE
M2 viral ion channel, Influenza A (Udorn/72) virions, sequence (P0DOF5 whole entry, looked up): as above
T2 sequence (P08510 whole entry T449K): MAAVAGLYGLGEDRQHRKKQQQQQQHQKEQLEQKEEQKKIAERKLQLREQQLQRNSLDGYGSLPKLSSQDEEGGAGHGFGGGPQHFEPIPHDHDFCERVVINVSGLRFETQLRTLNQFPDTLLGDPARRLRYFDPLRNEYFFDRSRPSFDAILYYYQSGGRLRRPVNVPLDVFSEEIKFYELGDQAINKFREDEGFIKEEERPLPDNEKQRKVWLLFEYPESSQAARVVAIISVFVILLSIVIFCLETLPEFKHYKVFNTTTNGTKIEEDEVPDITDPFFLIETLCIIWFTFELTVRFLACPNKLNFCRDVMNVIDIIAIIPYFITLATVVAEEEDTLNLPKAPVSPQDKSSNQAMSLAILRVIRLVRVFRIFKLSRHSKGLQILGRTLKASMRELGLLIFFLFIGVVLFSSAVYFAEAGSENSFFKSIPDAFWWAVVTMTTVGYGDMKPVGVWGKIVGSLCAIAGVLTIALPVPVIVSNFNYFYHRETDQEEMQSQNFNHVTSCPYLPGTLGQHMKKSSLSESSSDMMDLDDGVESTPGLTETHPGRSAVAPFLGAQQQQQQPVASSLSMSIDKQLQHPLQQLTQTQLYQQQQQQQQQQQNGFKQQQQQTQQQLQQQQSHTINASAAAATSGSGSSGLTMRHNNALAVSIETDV
Shaker, sequence (P08510 whole entry): as the sequence (P08510 whole entry T449K) above, with K449T counted along it

## NC12CC3CC(CC(C3)C1)C2 [amantadine]
A/M2/HK156/94
  Hillslope of inhibition curve: −0.71
  IC50: 980 nM
  mean change in fluorescence resulting from MES addition: 314±206
  H+ transport across VLP membranes (fluorescence): abrogated the subsequent movement of H^+; also recorded: in the absence, but not in the presence of amantadine
A/M2 Udorn72
  H+ transport fluorescence signal: inhibited the fluorescent response; also recorded: abrogated the subsequent movement of H^+; also recorded: completely abrogated
[1]
  fluorescent signal (membrane potential response) on low pH challenge: attenuated the fluorescent signal in a dose-dependent fashion; also recorded: inhibited
M2; other measures of M2 function, such as plaque assay, read-out: IC50 reported in the literature
  IC50: 1000 to 10000 nM

## NCCc1c[nH]c2ccc(O)cc12 [serotonin]
5HT3a cation channel
  dependence of the fluorescent signal on the ligand: dependent upon the presence; also recorded: omission of the ion channel ligand, serotonin, from the assay mix resulted in no change in fluorescence intensity

## gramicidin
[2]
  response to 30 mM K2SO4 after prior disruption of the lipoparticle structure: eliminated the response

## margatoxin (TIINVKCTSPKQCLPPCKAQFGQSAGAKCMNGKCKCYPH; UniProt P40755 1-39, looked up)
Shaker(Δ6-46)T449V
  Shaker activity: did not inhibit Shaker activity
Shaker(Δ6-46)T449V; 30 mM K2SO4
  lipoparticle Shaker activity: do not influence

## CC[C@H](C)[C@H](NC(=O)CN)C(=O)NCC(=O)N[C@@H](C)C(=O)N[C@H](C(=O)N[C@@H](CC(C)C)C(=O)N[C@@H](CCCCN)C(=O)N[C@H](C(=O)N[C@@H](CC(C)C)C(=O)N[C@H](C(=O)N[C@H](C(=O)NCC(=O)N[C@@H](CC(C)C)C(=O)N1CCC[C@H]1C(=O)N[C@@H](C)C(=O)N[C@@H](CC(C)C)C(=O)N[C@H](C(=O)N[C@@H](CO)C(=O)N[C@@H](Cc1c[nH]c2ccccc12)C(=O)N[C@H](C(=O)N[C@@H](CCCCN)C(=O)N[C@@H](CCCNC(=N)N)C(=O)N[C@@H](CCCCN)C(=O)N[C@@H](CCCNC(=N)N)C(=O)N[C@@H](CCC(N)=O)C(=O)N[C@@H](CCC(N)=O)C(N)=O)[C@@H](C)CC)[C@@H](C)CC)[C@@H](C)O)[C@@H](C)O)C(C)C)C(C)C [melittin]
[2]
  response to 30 mM K2SO4 after prior disruption of the lipoparticle structure: eliminated the response

## CC(N)C12CC3CC(CC(C3)C1)C2 (stereo not drawn) [rimantadine]
A/M2/HK156/94
  Hillslope of inhibition curve: −1.1
  IC50: 180 nM
  mean change in fluorescence resulting from MES addition: −432±167
  H+ transport across VLP membranes (fluorescence): abrogated the subsequent movement of H^+
A/M2 Udorn72
  H+ transport fluorescence signal: inhibited the fluorescent response; also recorded: abrogated the subsequent movement of H^+; also recorded: completely abrogated
M2; more potent than amantadine
  potency relative to amantadine reported in the literature: approximately 10 times

## charybdotoxin [CHTX]
Shaker(Δ6-46)T449V; 10 nM CHTX pre-incubation, 30 mM K2SO4
  Shaker conductance of K+ across lipoparticle membranes: completely inhibited
Shaker(Δ6-46)T449V; CHTX 100 pM to 10 nM, 10 ug Shaker plasmid
  inhibition of the fluorescent signal over a concentration range: concentration-dependent inhibition
Shaker(Δ6-46)T449V; lipoparticles produced using 10 ug Shaker plasmid, 30 mM K2SO4
  low concentration at which inhibition of membrane depolarization was evident: 0.1 nM
Shaker T449K mutant
  fluorescent signal on K+ addition: capable of inhibiting the fluorescent signal; also recorded: inhibition
[2]; null-lipoparticles pre-treated with 1 uM valinomycin, CHTX up to 10 nM, tubocurarine
  effect of channel inhibitor on valinomycin-mediated K+ movement (specificity control): did not influence; also recorded: had no effect
Shaker
  CHTX inhibition of Shaker in cells reported in the literature: ~3.6 nM

## CC(C)[C@@H]1NC(=O)[C@H](C)OC(=O)[C@@H](C(C)C)NC(=O)[C@@H](C(C)C)OC(=O)[C@H](C(C)C)NC(=O)[C@H](C)OC(=O)[C@@H](C(C)C)NC(=O)[C@@H](C(C)C)OC(=O)[C@H](C(C)C)NC(=O)[C@H](C)OC(=O)[C@@H](C(C)C)NC(=O)[C@@H](C(C)C)OC1=O [Valinomycin, valinomycin]
[2]; valinomycin-treated null-lipoparticles, twelve replicates, microplate, mean+/−standard deviation, untreated 1.023+/−0.009
  fluorescent signal on K+ exposure (normalized to baseline): 1.347+/−0.036

## iberiotoxin (QFTDVDCSVSKECWSVCKDLFGVDRGKCMGKKCRCYQ; UniProt P24663 1-37, looked up)
Shaker(Δ6-46)T449V
  Shaker activity: did not inhibit Shaker activity
Shaker(Δ6-46)T449V; 30 mM K2SO4
  lipoparticle Shaker activity: do not influence

## [Ba+2].[Cl-].[Cl-] [BaCl2]
Human KCNQ2/3 channel; 20 mM BaCl2
  fluorescent signal on K+ addition: inhibition
Human KCNQ2/3 channel; 120 mM BaCl2 pre-treatment
  fluorescent signal on K+ addition: capable of inhibiting the fluorescent signal

## COc1cc2c3cc1Oc1cc(ccc1O)C[C@@H]1c4c(cc(OC)c(O)c4Oc4ccc(cc4)C[C@@H]3N(C)CC2)CC[N+]1(C)C [tubocurarine]
5HT3a cation channel
  fluorescent signal on Na+ addition: capable of inhibiting the fluorescent signal; also recorded: inhibition

— patent US8377691B2 (priority 2006, dated 2013)
